In US3985798A, “11α-HOMO-PROSTANOIC ACIDS AND ESTERS” (American Cyanamid Company, priority 1975, dated 1976):

Tested on: basal gastric acid secretion
Assay: Inhibition of Total Acid Output in the Acute Gastric Fistula Rat (inhibition of basal gastric acid secretion)
Assay type: in vivo, Female Sprague-Dawley rats
Details: 10 mg./kg. intraduodenal, vs concurrent vehicle control; for Total Acid Output % Inhibition, 60"(A): sample A, 60 minutes; for Total Acid Output % Inhibition, 120"(B): sample B, 120 minutes
Source text: The natural prostaglandins have a broad spectrum of biological properties. Because of these diverse effects their potential therapeutic use is limited. […] On the other hand, they do inhibit gastic acid secretion and accordingly are potentially useful for the treatment of peptic ulcers, gastric hyperacidity and gastric erosion. Inhibition of basal gastric acid secretion can be determined by the following procedure. Female Sprague-Dawley rats weighing 140-160 grams are fasted in individual cages for 18-24 hours. The rats are then lightly anesthetized with ether and their front teeth extracted to avoid destruction of the plastic cannula. A midline incision is then made and the stomach and duodenum exposed. A flanged polyvinyl tube is inserted into the fundic portion of the stomach and secured with a purse string suture line using 4-0 Mersilene. The rat is then dosed by injection of the compound into the duodenum (1.0 ml. per 100 gram body weight). After dosing, the abdominal wall and skin are closed using metal wound clips. The rat is replaced in a cage containing a longitudinal slit to allow the polyvinyl tube to hang freely. An 8 ml. plastic collecting tube is attached to the flanged cannula and hangs freely below the cage. The first 30 minute sample is discarded designating this time as zero. The collecting tube is attached again and samples removed at the end of 60 and 120 minutes. These samples are referred to as A and B in the table. The hourly samples are then transferred to a 15 ml. centrifuge and centrifuged for 5-10 minutes. Total and sediment volume are then recorded with the supernatant volume being used as volume of secretion. A 1 ml. or less aliquot is then removed and placed in a 50 ml. beaker containing 10 ml. of distilled water. This sample is then titrated using 0.01N NaOH to pH 7.0 using a Beckman zeromatic pH meter, Volume, titratable acidity (meq/L), and total acid output (ueg/hour) are recorded. Percent inhibition is determined by comparison with the appropriate control. Groups of three rats were used for preliminary testing, and groups of six rats were used for dose-response evaluations. All compounds are administered in a vehicle consisting of 0.5% methocel, 0.4% Tween 80, and saline at a constant volume of 1 ml./100 gram rat. Samples are dispersed by sonification. Percent inhibition is calculated on basis of concurrent vehicle control.
In Table A which follows is given the effect on total acid output after 120 minutes of a 10 mg./kg. intraduodenal dose of representative compounds of this invention.

SMILES	Total Acid Output % Inhibition, 60"(A) [%]	Total Acid Output % Inhibition, 120"(B) [%]
CCCCC[C@@H](O)/C=C/[C@H]1CC=CC(=O)[C@@H]1CCCCCCC(=O)O (relative stereo) [9-oxo-15-epi-hydroxy-11a-homo-10,13-trans-prostadienoic acid]	43	47
CCCCC[C@H](O)/C=C/[C@H]1CC=CC(=O)[C@@H]1CCCCCCC(=O)O (relative stereo) [dl-11a-homoprostaglandin A1, 9-oxo-15-hydroxy-11a-homo-10,13-trans-prostadienoic acid]	35	33
CCCCC[C@H](O)/C=C/[C@H]1C[C@H](O)CC(=O)[C@@H]1CCCCCCC(=O)O (relative stereo) [dl-11a-homoprostaglandin E1, 9-oxo-11α,15-dihydroxy-11a-homo-13-trans-prostenoic acid]	69	74
